Source: patent US6737383B1, “Herbicidal oxadiazolidines” (priority 1999, dated 2004)

Legend:
soybean = test: Test B pre/postemergence soybean; assay type: in vivo, Glycine max
Summary of the method: (§1)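 Herbicidal effect was estimated by eye on a ten-point control scale after plants spent twelve to sixteen days in a greenhouse following soil or foliar treatment. Foliar sprays targeted plants at one to four leaves; all doses were formulated in a non-phytotoxic solvent with surfactant.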

crabgrass = test: Test B pre/postemergence crabgrass; assay type: in vivo, Digitaria sanguinalis
Summary of the method: as §1

corn = test: Test B pre/postemergence corn; assay type: in vivo, Zea mays
Summary of the method: as §1

sugar beet = test: Test B pre/postemergence sugar beet; assay type: in vivo, Beta vulgaris
Summary of the method: as §1

rape = test: Test B pre/postemergence rape; assay type: in vivo, Brassica napus
Summary of the method: as §1

pigweed = test: Test B pre/postemergence pigweed; assay type: in vivo, Amaranthus retroflexus
Summary of the method: as §1

wild oat = test: Test B pre/postemergence wild oat; assay type: in vivo, Avena fatua
Summary of the method: as §1

cocklebur = test: Test B pre/postemergence cocklebur; assay type: in vivo, Xanthium strumarium
Summary of the method: as §1

purple nutsedge = test: Test B pre/postemergence purple nutsedge; assay type: in vivo, Cyperus rotundus
Summary of the method: as §1

velvetleaf = test: Test B pre/postemergence velvetleaf; assay type: in vivo, Abutilon theophrasti
Summary of the method: as §1

wheat = test: Test B pre/postemergence wheat; assay type: in vivo, Triticum aestivum
Summary of the method: as §1

blackgrass = test: Test B pre/postemergence blackgrass; assay type: in vivo, Alopecurus myosuroides
Summary of the method: as §1

bedstraw = test: Test B pre/postemergence bedstraw; assay type: in vivo, Galium aparine
Summary of the method: as §1

surinam grass = test: Test B pre/postemergence surinam grass; assay type: in vivo, Brachiaria decumbens
Summary of the method: as §1

morningglory = test: Test B pre/postemergence morningglory; assay type: in vivo, Ipomoea hederacea
Summary of the method: as §1

giant foxtail = test: Test B pre/postemergence giant foxtail; assay type: in vivo, Setaria faberii
Summary of the method: as §1

[1] = Postemergence, Rate 31 g/ha, visual rating, scale 0 to 10 (0 no effect, 10 complete control)
[2] = Postemergence, Rate 62 g/ha, scale of 0 to 10, 0 is no effect, 10 is complete control
[3] = Postemergence, Rate 125 g/ha, scale 0 to 10, 0 is no effect, 10 is complete control
[4] = Preemergence, Rate 62 g/ha, scale 0 to 10 (0 no effect, 10 complete control)
[5] = Preemergence, Rate 125 g/ha, scale 0 to 10, 0 is no effect, 10 is complete control
[6] = Rate 250 g/ha, Postemergence, scale of 0 to 10 where 0 is no effect and 10 is complete control
[7] = Preemergence, Rate 31 g/ha, visual rating, scale 0 to 10 (0 no effect, 10 complete control)

CC(C)N(C(=O)n1oc(=O)n(C[Si](C)(C)C)c1=O)c1ccc(Cl)cc1 [Compound 548]
5: Crabgrass plant response rating (crabgrass; [3]) | Morningglory plant response rating (morningglory; [2])
9: Crabgrass plant response rating (crabgrass; [4]) | Crabgrass plant response rating (crabgrass; [5]) | Bedstraw plant response rating (bedstraw; [7]) | Plant response rating, Bedstraw (bedstraw; [6]) | Giant foxtail plant response rating (giant foxtail; [7]) | Giant foxtail plant response rating (giant foxtail; [4]) | Giant foxtail plant response rating (giant foxtail; [5])
7: Plant response rating, Rape (rape; [6])
2: Soybean plant response rating (soybean; [2]) | Soybean plant response rating (soybean; [3]) | Plant response rating, Soybean (soybean; [6]) | Sugarbeets plant response rating (0 to 10 scale) (sugar beet; Preemergence, Rate 250 g/ha) | Rape plant response rating (0 to 10 scale) (rape; Preemergence, Rate 250 g/ha) | Redroot pigweed plant response rating (0 to 10 scale) (pigweed; Preemergence, Rate 250 g/ha) | Plant response rating, Redroot pigweed (pigweed; [6]) | Wild oats plant response rating (0 to 10 scale) (wild oat; Preemergence, Rate 250 g/ha) | Plant response rating, Wheat (wheat; [6]) | B. signalgrass plant response rating (surinam grass; [5])
10: Crabgrass plant response rating (0 to 10 scale) (crabgrass; Preemergence, Rate 250 g/ha) | Bedstraw plant response rating (bedstraw; [5]) | Bedstraw plant response rating (0 to 10 scale) (bedstraw; Preemergence, Rate 250 g/ha) | Giant foxtail plant response rating (0 to 10 scale) (giant foxtail; Preemergence, Rate 250 g/ha)
4: Crabgrass plant response rating (crabgrass; [7]) | Bedstraw plant response rating (bedstraw; [3])
3: Plant response rating, Sugarbeets (sugar beet; [6]) | Blackgrass plant response rating (blackgrass; [5]) | Blackgrass plant response rating (0 to 10 scale) (blackgrass; Preemergence, Rate 250 g/ha) | Plant response rating, Blackgrass (blackgrass; [6]) | B. signalgrass plant response rating (0 to 10 scale, 0 is no effect, 10 is complete control) (surinam grass; Preemergence, Rate 250 g/ha)
0: Soybean plant response rating (soybean; [4]) | Soybean plant response rating (soybean; [5]) | Soybean plant response rating (0 to 10 scale) (soybean; Preemergence, Rate 250 g/ha) | Crabgrass plant response rating (crabgrass; [1]) | Corn plant response rating (corn; [1]) | Corn plant response rating (corn; [2]) | Corn plant response rating (corn; [3]) | Corn plant response rating (corn; [7]) | Corn plant response rating (corn; [4]) | Corn plant response rating (corn; [5]) | Corn plant response rating (0 to 10 scale) (corn; Preemergence, Rate 250 g/ha) | Plant response rating, Corn (corn; [6]) | Sugarbeets plant response rating (sugar beet; [1]) | Sugarbeets plant response rating (sugar beet; [2]) | Sugarbeets plant response rating (sugar beet; [3]) | Sugarbeets plant response rating (sugar beet; [4]) | Sugarbeets plant response rating (sugar beet; [5]) | Rape plant response rating (rape; [1]) | Rape plant response rating (rape; [3]) | Rape plant response rating (rape; [4]) | Rape plant response rating (rape; [5]) | Redroot pigweed plant response rating (pigweed; [1]) | Redroot pigweed plant response rating (pigweed; [2]) | Redroot pigweed plant response rating (pigweed; [3]) | Redroot pigweed plant response rating (pigweed; [4]) | Redroot pigweed plant response rating (pigweed; [5]) | Wild oats plant response rating (wild oat; [1]) | Wild oats plant response rating (wild oat; [2]) | Wild oats plant response rating (wild oat; [3]) | Wild oats plant response rating (wild oat; [4]) | Wild oats plant response rating (wild oat; [5]) | Plant response rating, Wild oats (wild oat; [6]) | Cocklebur plant response rating (cocklebur; [1]) | Cocklebur plant response rating (cocklebur; [2]) | Cocklebur plant response rating (cocklebur; [3]) | Cocklebur plant response rating (cocklebur; [7]) | Cocklebur plant response rating (cocklebur; [4]) | Cocklebur plant response rating (cocklebur; [5]) | Cocklebur plant response rating (0 to 10 scale) (cocklebur; Preemergence, Rate 250 g/ha) | Plant response rating, Cocklebur (cocklebur; [6]) | Nutsedge plant response rating (purple nutsedge; [1]) | Nutsedge plant response rating (purple nutsedge; [3]) | Nutsedge plant response rating (purple nutsedge; [4]) | Nutsedge plant response rating (purple nutsedge; [5]) | Nutsedge plant response rating (0 to 10 scale) (purple nutsedge; Preemergence, Rate 250 g/ha) | Plant response rating, Nutsedge (purple nutsedge; [6]) | Velvetleaf plant response rating (velvetleaf; [1]) | Velvetleaf plant response rating (velvetleaf; [2]) | Velvetleaf plant response rating (velvetleaf; [3]) | Velvetleaf plant response rating (velvetleaf; [4]) | Velvetleaf plant response rating (velvetleaf; [5]) | Velvetleaf plant response rating (0 to 10 scale) (velvetleaf; Preemergence, Rate 250 g/ha) | Plant response rating, Velvetleaf (velvetleaf; [6]) | Wheat plant response rating (wheat; [1]) | Wheat plant response rating (wheat; [2]) | Wheat plant response rating (wheat; [3]) | Wheat plant response rating (wheat; [4]) | Wheat plant response rating (wheat; [5]) | Wheat plant response rating (0 to 10 scale) (wheat; Preemergence, Rate 250 g/ha) | Blackgrass plant response rating (blackgrass; [1]) | Blackgrass plant response rating (blackgrass; [2]) | Blackgrass plant response rating (blackgrass; [3]) | Blackgrass plant response rating (blackgrass; [7]) | Blackgrass plant response rating (blackgrass; [4]) | Bedstraw plant response rating (bedstraw; [1]) | Bedstraw plant response rating (bedstraw; [2]) | B. signalgrass plant response rating (surinam grass; [1]) | B. signalgrass plant response rating (surinam grass; [2]) | B. signalgrass plant response rating (surinam grass; [3]) | B. signalgrass plant response rating (surinam grass; [7]) | B. signalgrass plant response rating (surinam grass; [4]) | Plant response rating, B. signalgrass (surinam grass; [6]) | Morningglory plant response rating (morningglory; [4]) | Morningglory plant response rating (morningglory; [5]) | Morningglory plant response rating (0 to 10 scale) (morningglory; Preemergence, Rate 250 g/ha) | Giant foxtail plant response rating (giant foxtail; [1]) | Giant foxtail plant response rating (giant foxtail; [2]) | Giant foxtail plant response rating (giant foxtail; [3]) | Plant response rating, Giant foxtail (giant foxtail; [6])
8: Bedstraw plant response rating (bedstraw; [4]) | Plant response rating, Morningglory (morningglory; [6])
1: Soybean plant response rating (soybean; [1]) | Morningglory plant response rating (morningglory; [1])
